“Also recorded” adds a separate entry of the source.
Columns and labels:
[1] = target: SARS-CoV-2 RNA polymerase (RdRp) (Severe acute respiratory syndrome coronavirus 2, UniProt P0DTD1); assay: RdRp inhibition assay; format: biochemical; details: Figure 4; result in words
VeroE6/TMPRSS2 cells = details: at a concentration of 100 μM; result in words
neural stem cells = details: result in words; cited from earlier work
SARS-CoV-2 = format: cell-based; details: for anti-SARS-CoV-2 activity (library screening): tetrazolium dye method, result in words
[2] = tested on: 3-chymotrypsin-like (3CL) protease of SARS-CoV-2; details: result in words; cited from earlier work

SMILES	Inhibitory effect on SARS-CoV-2 RdRp activity [1]	toxicity (VeroE6/TMPRSS2 cells)	neuronal differentiation activity (neural stem cells)	anti-SARS-CoV-2 activity (library screening) (SARS-CoV-2)	Microscopic observation of cell survival (SARS-CoV-2)	inhibition of 3CL protease of SARS-CoV-2 [2]
CC1=C(C/C=C(\C)CC/C=C(\C)Cn2cnc3c(Cl)ncnc32)C(=O)c2ccccc2C1=O [Compound 16, 2-((2E,6E)-8-(6-Chloro-9H-purin-9-yl)-3,7-dimethylocta-2,6-dien-1-yl)-3-methylnaphthalene-1,4-dione]	inhibited RdRp in a concentration-dependent manner	no toxicity				
CC1=C(C/C=C(\C)CC/C=C(\C)Cc2cccc3ccccc23)C(=O)c2ccccc2C1=O [Compound 2]	inhibited RdRp in a concentration-dependent manner		induce neural stem cells to differentiate into neurons	anti-SARS-CoV-2 activity was observed		
CC1=C(C/C=C(\C)CC/C=C(\C)Cc2cccc(C)c2)C(=O)c2ccccc2C1=O [Compound 1]	inhibited RdRp in a concentration-dependent manner		higher neuronal differentiation activity than natural vitamin K homologues; also recorded: induce neural stem cells to differentiate into neurons	anti-SARS-CoV-2 activity was observed	survived as well as control A	
CC1=CC(=O)c2ccccc2C1=O [vitamin K3, menadione]						inhibit

Reference: article PMC10652723 (ACS Omega, 2023)
